Assay results as given in PMC11222147, “Host defence peptide plectasin targets bacterial cell wall precursor lipid II by a calcium-sensitive supramolecular mechanism” (Nature Microbiology, 2024).
≈ marks a conversion by molar mass, not a printed value.

Columns and labels:
S. simulans 22 = assay: MIC assays under standard conditions; type: cell-based, Staphylococcus simulans
Summary of the method: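 Broth microdilution in cation-adjusted MHB, inoculum from OD600 0.5 TSB culture diluted 100-fold, 37 °C with shaking. Streptococci: 5% lysed horse blood, 5% CO2, MIC read visually at 20–24 h; S. simulans read at 16–20 h.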

[1] = Tryptophan fluorescence spectroscopy, lipid II binding affinity
Procedure: Plectasin’s single tryptophan can be used to monitor insertion into the membrane. Measurements were done on a Cary Eclipse (FL0904M005) fluorimeter at 20 °C under constant stirring in a 4 × 10 mm quartz cuvette. For titration experiments, the cuvette was oriented perpendicular to the excitation beam to minimize scattering. LUVs with or without 2 mol% lipid II (prepared as described above at 1–5 mM total lipid concentration) were titrated to 100 nM plectasin in 50 mM HEPES, 150 mM NaCl at pH = 7.2. Fluorescence was excited at 280 nm (5 nm slit) and recorded between 300 and 400 nm (10 nm slit) at 1 nm intervals with 1 s averaging per point. Spectra were corrected for a blank using buffer and for scattering using a titration series in the absence of plectasin. Corrected spectra were fit with log-normal distributions, and the shift of the resulting wavelength of maximum fluorescence (Δλmax) as a function of lipid II concentration on the outside of the vesicles was fit using a quadratic binding equation[54] to obtain the binding affinities.

[2] = Carboxyfluorescein leakage from LUVs
Procedure: Vesicle leakage assays were conducted using LUVs filled with carboxyfluorescein. Carboxyfluorescein solutions were made by suspending ~50 mM carboxyfluorescein in H2O and adjusting the pH to ~7.2 using 10 M NaOH. The resulting solution was diluted with H2O to match the osmolarity of the outside buffer, which consisted of 10 mM Tris and 100 mM NaCl, at pH = 7.2. LUVs were prepared as described above. Non-enclosed carboxyfluorescein was removed using a Sephadex G50 column equilibrated in outside buffer. Measurements were conducted on a Cary Eclipse spectrophotometer at 20 °C under constant stirring by monitoring the fluorescence intensity at 515 nm (excitation at 492 nm, 5 nm slit width, 0.1 s averaging time). A total lipid concentration of 25 µM was used for all experiments. Fluorescence traces were normalized using the fluorescence baseline at the start as 0% and fluorescence after treatment with 0.1 vol% Triton-X100 as 100%.

CC[C@H](C)[C@@H]1NC(=O)[C@H](CO)NC(=O)[C@H](CCCCN)NC(=O)[C@@H]2CSSC[C@@H](C(=O)N[C@@H](Cc3ccc(O)cc3)C(=O)O)NC(=O)[C@H](CCCCN)NC(=O)[C@@H]3CSSC[C@H](NC(=O)[C@H](CCC(N)=O)NC(=O)[C@H](CCSC)NC(=O)[C@H](CC(=O)O)NC(=O)[C@H](CC(=O)O)NC(=O)[C@H](CCC(=O)O)NC(=O)[C@H](CC(=O)O)NC(=O)[C@H](Cc4c[nH]c5ccccc45)NC(=O)[C@@H]4CCCN4C(=O)CNC(=O)[C@H](CC(N)=O)NC(=O)[C@@H](NC(=O)CNC(=O)[C@H](Cc4ccccc4)NC(=O)CN)CSSC[C@H](NC(=O)[C@H](Cc4ccc(O)cc4)NC(=O)CNC(=O)CNC(=O)[C@H](CCCCN)NC(=O)[C@H](Cc4ccc(O)cc4)NC(=O)CNC(=O)[C@H](CCCCN)NC1=O)C(=O)N[C@@H](C)C(=O)N[C@@H](CCCCN)C(=O)NCC(=O)NCC(=O)N[C@@H](Cc1ccccc1)C(=O)N[C@@H](C(C)C)C(=O)N3)C(=O)N[C@@H](Cc1c[nH]cn1)C(=O)N[C@@H](CC(N)=O)C(=O)N[C@@H](Cc1c[nH]cn1)C(=O)N2 [Plectasin wt]
Minimum inhibitory concentration, S. simulans (S. simulans 22; Supplementary Table 1, cation-adjusted MHB, 37 °C, 16–20 h): 0,78 μg/mL | MIC expressed as plectasin concentration (S. simulans 22; corresponding to 0.78 µg ml^−1): 0.177 µM (≈ 0.779 µg/mL) | Kd ([1]; DOPC liposomes, 1 mM Mg^2+): 80 nM | Kd ([1]; DOPC liposomes, without bivalent ions (100 μM EDTA)): 155 nM | Kd ([1]; anionic DOPC/DOPG (1:1) liposomes, 1 mM Ca^2+): 1 nM | Kd ([1]; anionic DOPC/DOPG (1:1) liposomes, 1 mM Mg^2+): 4 nM | Kd ([1]; anionic DOPC/DOPG (1:1) liposomes, without bivalent ions (100 μM EDTA)): 27 nM | lipid II binding affinity increase in the presence of Ca^2+ ([1]; neutral DOPC liposomes, with Ca^2+ vs without bivalent ions): > 100 fold | Kd ([1]; zwitterionic DOPC liposomes, 2 mol% lipid II, 1 mM Ca^2+, 100 nM plectasin, HEPES pH 7.2, 20 °C): 1 nM | carboxyfluorescein leakage (in words) ([2]; DOPC Lipid II vesicles, in the presence of calcium): efficiently permeabilized | carboxyfluorescein leakage (in words) ([2]; phospholipids native to gram-positive bacteria included in the membrane, with calcium): virtually no leakage
